From patent US6696474B2, “Antidiabetic agents” (Warner Lambert Co. LLC., priority 2002, dated 2004)
Read-outs that look alike come from different tables or passages of the source.

Legend:
[1] = system: Ob/Ob diabetic mouse model; experiment: Blood glucose measurement (Glucose Δ) in Ob/Ob diabetic mouse model; type: in vivo
Description: Glucose is obtained 4 hours post dose via tail vein stick (5 μl whole blood) in awake, 4 hour fasted animals. Blood is drawn by capillary action into a glucose cuvette and read in a HemoCue Glucose Analyzer (Ryan Diagnostics). Blood is diluted 1:2 with saline if glucose levels are greater than 400 mg/dl (meter high range) and results multiplied by two.

PPAR-γ = biological target: T1, PPAR-γ (Mus musculus, UniProt P37238); experiment: 3T3-L1 transient reporter assay (AD3T3-L1 reporter); type: cell-based, murine; details: for EC50: 3T3-L1 cells, aP2 promoter luciferase reporter, 48 hours
T1 construct: endogenous in cells; host or cells: 3T3-L1 preadipocytes, differentiated for about 3 days with methyl isobutylxanthine, dexamethasone and insulin
T1 sequence (P37238 1-505): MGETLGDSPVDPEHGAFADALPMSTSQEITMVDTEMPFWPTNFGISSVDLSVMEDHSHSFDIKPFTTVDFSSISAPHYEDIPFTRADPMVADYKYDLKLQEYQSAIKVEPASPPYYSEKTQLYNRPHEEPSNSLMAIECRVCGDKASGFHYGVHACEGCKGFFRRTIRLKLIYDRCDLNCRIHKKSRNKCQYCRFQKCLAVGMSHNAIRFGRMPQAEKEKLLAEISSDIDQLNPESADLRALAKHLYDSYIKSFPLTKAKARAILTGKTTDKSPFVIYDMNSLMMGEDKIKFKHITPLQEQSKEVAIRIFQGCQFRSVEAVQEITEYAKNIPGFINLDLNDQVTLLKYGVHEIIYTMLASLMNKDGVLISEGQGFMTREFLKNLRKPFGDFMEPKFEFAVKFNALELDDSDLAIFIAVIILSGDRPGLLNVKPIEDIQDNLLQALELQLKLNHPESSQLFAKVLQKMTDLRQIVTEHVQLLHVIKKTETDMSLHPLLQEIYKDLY
Description: This assay is used to determine the potential of putative PPAR-γ ligands to activate the promoter/enhancer of the murine aP2 gene. 3T3-L1 preadipocytes are cultured on collagen coated plates in DMEM containing 10% Calf serum for 48 hours post-confluence. The cells are then cultured for approximately 3 days in DMEM containing 10% Fetal Bovine Serum (FBS), 0.5-mM methyl isobutylxanthine, 0.25 μM dexamethasone, and 1 μg/ml of insulin. Cells are detached from the plates with Trypsin-EDTA and resuspended in Phosphate Buffered Saline (PBS).
The reporter construct used in this assay is comprised of the —5.4 Kb 5′ flanking region of the murine aP2 gene inserted into the cloning site of the TKpGL3 luciferase vector. Transfection efficiency is controlled by co-transfection of the reference plasmid CMV-β-galactosidase. The reporter construct and the reference plasmid are transiently co-transfected into the cells by electroporation. The transfected cells are plated into collagen coated 96-well plates and cultured overnight. Cells are then incubated for 48 hours with the test compounds and then harvested. The lysates are measured for luciferase and β-galactosidase activities using the Dual-Light® luciferase kit from Tropix on a EG&G Berthold MicroLumat LB96P luminometer.

[2] = 3T3-L1, maximal response relative to rosiglitazone, read-out: AD3T3-L1 Reporter Max. % Rosi (maximal response)

Structure (SMILES) | In VIVO Δ Glucose @ 20 mg/kg ([1]; 20 mg/kg, glucose 4 hours post dose) | In VIVO % Rosiglitazone ([1]; 20 mg/kg, glucose change relative to rosiglitazone) | Blood glucose in Ob/Ob diabetic mouse model ([1]; Ob/Ob diabetic mouse, in 3 days at 20 mg/Kg) | Emax (PPAR-γ; [2]) | EC50 (PPAR-γ) | Emax (PPAR-γ; 3T3-L1, read-out: AD3T3-L1 Reporter Max. % Rosi (maximal response))
Cc1oc(-c2ccccc2)nc1CCCC#CCC(C(=O)O)n1nccn1 (stereo not drawn) [Example 1-15, 8-(5-Methyl-2-phenyl-oxazol-4-yl)-2-[1,2,3]triazol-2-yl-oct-4-ynoic Acid] | -258 mg/dL | 180% | Normalized blood glucose | 103% | 15 nM | 
Cc1oc(-c2ccccc2)nc1CCCC#CCC(C(=O)O)c1cccs1 (stereo not drawn) [Example 1-13, 8-(5-Methyl-2-phenyl-oxazol-4-yl)-2-thiophen-2-yl-oct-4-ynoic Acid] |  |  |  | 97% | 303 nM | 
Cc1oc(-c2ccccc2)nc1CCCC#CCC(C(=O)O)n1cccc1 (stereo not drawn) [Example 1-11] |  |  |  |  | 89 nM | 108%
